Results from patent publication US20250313574A1, “SIALIC ACID DERIVATIVES AND METHODS OF USING SAME” (EISAI R&D MANAGEMENT CO., LTD., priority 2022, published 2025).
Read-outs that look alike come from different tables or passages of the source.

What was measured:
[1] = rcm bond, toluene
[2] = molecular target: Recombinant human CD33 protein (Homo sapiens (Human), UniProt P20138); test: CD33 competitive binding assay for HTS drug screen (fluorescent multivalent sialic acid probe)
Method in brief: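 Recombinant human CD33, coated overnight at 4° C from 10 μg/ml in pH 5.5 acetate, was preincubated briefly with compound. It was then exposed to a multivalent neutravidin/FITC/sialic acid analog A-375 probe (final 5 μM neutravidin, 15 μM A-375, 5 μM FITC) for 30 min at room temperature. After washing, bound FITC fluorescence was read.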

[3] = molecular target: Recombinant Human Siglec-3/CD33 protein (His-CD33) (Homo sapiens (Human), UniProt P20138); test: Differential scanning fluorimetry (DSF) thermal shift assay; assay type: binding; conditions: difference in thermal melt of CD33 protein (0.5 μM) with 50 μM compound
Chain of Recombinant Human Siglec-3/CD33 protein (His-CD33) (P20138 18-259): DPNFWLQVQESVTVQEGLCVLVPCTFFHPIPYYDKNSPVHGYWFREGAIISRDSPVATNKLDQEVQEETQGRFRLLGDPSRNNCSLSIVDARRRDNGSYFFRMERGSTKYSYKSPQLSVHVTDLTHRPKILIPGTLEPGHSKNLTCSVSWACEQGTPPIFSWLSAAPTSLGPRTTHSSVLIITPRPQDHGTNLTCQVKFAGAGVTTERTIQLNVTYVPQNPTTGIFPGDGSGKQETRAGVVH

Chain of Recombinant human CD33 protein (P20138 18-259): as above

| SMILES | EC50 [2] [µM] | DSF (dTmD) [3] [°C] | also measured |
| --- | --- | --- | --- |
| CC(=O)O[C@H]1[C@@H]2O[C@](C(=O)OCc3ccccc3)(CC=CCCCCC(=O)NCCCOc3c(C)cc(cc3C)C(=O)NC[C@H]1OC(C)=O)C[C@H](OC(C)=O)[C@H]2NC(=O)OC(C)(C)C |  |  | ring closure, isolated yield ([1]; from C=CCCCCC(=O)NCCCOc1c(C)cc(C(=O)NC[C@@H](OC(C)=O)[C@@H](OC(C)=O)[C@@H]2O[C@@](CC=C)(C(=O)OCc3ccccc3)C[C@H](OC(C)=O)[C@H]2NC(=O)OC(C)(C)C)cc1C, 25-membered ring, Hoveyda-Grubbs II, 2.15 mM, 90.0 °C, 0.58 h): 41% |
| CC(=O)O[C@H]1[C@@H]2O[C@](C(=O)OCc3ccccc3)(CC=CCOC[C@@H](C)C(=O)NCCCOc3c(C)cc(cc3C)C(=O)NC[C@H]1OC(C)=O)C[C@H](OC(C)=O)[C@H]2NC(=O)OC(C)(C)C |  |  | ring closure, isolated yield ([1]; from C=CCOC[C@@H](C)C(=O)NCCCOc1c(C)cc(C(=O)NC[C@@H](OC(C)=O)[C@@H](OC(C)=O)[C@@H]2O[C@@](CC=C)(C(=O)OCc3ccccc3)C[C@H](OC(C)=O)[C@H]2NC(=O)OC(C)(C)C)cc1C, 25-membered ring, Hoveyda-Grubbs II (10 mol%)/1,4-benzoquinone, 1.52 mM, 80.0 °C, 1.0 h): 47% |
| COC(=O)[C@]12CC=CCCC[C@@H](NC(=O)C3CCCOC3)c3cccc(c3)COc3c(C)cc(cc3C)C(=O)NC[C@@H](OC(C)=O)[C@@H](OC(C)=O)[C@H](O1)[C@H](NC(=O)OC(C)(C)C)[C@@H](OC(C)=O)C2 (some centres unmarked) |  |  | ring closure, isolated yield ([1]; from C=CCCC[C@@H](NC(=O)C1CCCOC1)c1cccc(COc2c(C)cc(C(=O)NC[C@@H](OC(C)=O)[C@@H](OC(C)=O)[C@@H]3O[C@@](CC=C)(C(=O)OC)C[C@H](OC(C)=O)[C@H]3NC(=O)OC(C)(C)C)cc2C)c1, 24-membered ring, Hoveyda-Grubbs II/quinone, 1.03 mM, 90.0 °C, 24.0 h): 71% |
| COC(=O)[C@]12CC=CCOC[C@@H](NC(=O)C3CCCOC3)COCCCOc3c(C)cc(cc3C)C(=O)NC[C@@H](OC(C)=O)[C@@H](OC(C)=O)[C@H](O1)[C@H](NC(=O)OC(C)(C)C)[C@@H](OC(C)=O)C2 (some centres unmarked) |  |  | ring closure, isolated yield ([1]; from C=CCOC[C@H](COCCCOc1c(C)cc(C(=O)NC[C@@H](OC(C)=O)[C@@H](OC(C)=O)[C@@H]2O[C@@](CC=C)(C(=O)OC)C[C@H](OC(C)=O)[C@H]2NC(=O)OC(C)(C)C)cc1C)NC(=O)C1CCCOC1, 25-membered ring, Hoveyda-Grubbs II/quinone, 1.04 mM, 90.0 °C, 24.0 h): 76% |
| COC(=O)[C@]12CC=CCOC[C@H]3C[C@H](CN3C(=O)C3CCCOC3)OCCOc3c(C)cc(cc3C)C(=O)NC[C@@H](OC(C)=O)[C@@H](OC(C)=O)[C@H](O1)[C@H](NC(=O)OC(C)(C)C)[C@@H](OC(C)=O)C2 (some centres unmarked) |  |  | ring closure, isolated yield ([1]; from C=CCOC[C@H]1C[C@@H](OCCOc2c(C)cc(C(=O)NC[C@@H](OC(C)=O)[C@@H](OC(C)=O)[C@@H]3O[C@@](CC=C)(C(=O)OC)C[C@H](OC(C)=O)[C@H]3NC(=O)OC(C)(C)C)cc2C)CN1C(=O)C1CCCOC1, 25-membered ring, Hoveyda-Grubbs II/quinone, 1.03 mM, 90.0 °C, 24.0 h): 64% |
| Cc1cc2cc(C)c1OCCOC[C@@H](NC(=O)C1CCCOC1)COC/C=C/C[C@]1(C(=O)O)C[C@H](O)[C@@H](NC(=O)Cn3cc(C4CCCCC4)nn3)[C@@H](O1)[C@H](O)[C@H](O)CNC2=O (some centres unmarked) [A-341] | 9.98 | 2.7 |  |
| CC(=O)N[C@H]1[C@H]2O[C@](C(=O)O)(CCCCOC[C@@H](NC(=O)C3CCCOC3)COCCOc3c(C)cc(cc3C)C(=O)NC[C@@H](O)[C@H]2O)C[C@@H]1O (some centres unmarked) [A-342] | 45.4 | 1.5 |  |
| CC(=O)N[C@H]1[C@H]2O[C@](C(=O)O)(C/C=C/COC[C@@H](NC(=O)OC(C)(C)C)COCCCOc3c(C)cc(cc3C)C(=O)NC[C@@H](O)[C@H]2O)C[C@@H]1O [A-343] | 6.54 | 4.6 |  |
| Cc1cc2cc(C)c1OCCCNC(=O)CCCCCCC[C@]1(C(=O)O)C[C@H](O)[C@@H](NC(=O)Cn3cc(C4CCCCC4)nn3)[C@@H](O1)[C@H](O)[C@H](O)CNC2=O [A-344] | 18 | 1.52 |  |
| Cc1cc2cc(C)c1OCCCNC(=O)CCCCCC[C@]1(C(=O)O)C[C@H](O)[C@@H](NC(=O)Cn3cc(C4CCCCC4)nn3)[C@@H](O1)[C@H](O)[C@H](O)CNC2=O [A-345] | 21.4 | 3.2 |  |
| Cc1cc2cc(C)c1OCCCCNC(=O)CCCCCC[C@]1(C(=O)O)C[C@H](O)[C@@H](NC(=O)Cn3cc(C4CCCCC4)nn3)[C@@H](O1)[C@H](O)[C@H](O)CNC2=O [A-346] | 13.3 | 3.4 |  |
| Cc1cc2cc(C)c1OCCNC(=O)CCCCCCCC[C@]1(C(=O)O)C[C@H](O)[C@@H](NC(=O)Cn3cc(C4CCCCC4)nn3)[C@@H](O1)[C@H](O)[C@H](O)CNC2=O [A-347] | 19 | 3.6 |  |
| CC(=O)N[C@H]1[C@H]2O[C@](C(=O)O)(C/C=C/c3cccc(c3)[C@@H](NC(=O)[C@H]3CCCOC3)CCCCOc3c(C)cc(cc3C)C(=O)NC[C@@H](O)[C@H]2O)C[C@@H]1O [A-348] | 10.1 | 3.6 |  |
| CC(=O)N[C@H]1[C@H]2O[C@](C(=O)O)(C/C=C/c3cccc(c3)[C@@H](NC(=O)[C@@H]3CCCOC3)CCCCOc3c(C)cc(cc3C)C(=O)NC[C@@H](O)[C@H]2O)C[C@@H]1O [A-349] | 5.24 | 5.5 |  |
| CC(=O)N[C@H]1[C@H]2O[C@](C(=O)O)(CCCc3cccc(c3)[C@@H](NC(=O)C3CCCOC3)CCCCc3cc(cc(Cl)c3O)C(=O)NC[C@@H](O)[C@H]2O)C[C@@H]1O (some centres unmarked) [A-351] | 15 | 3.1 |  |
| CC(=O)N[C@H]1[C@H]2O[C@](C(=O)O)(C/C=C/c3cccc(c3)[C@@H](NC(=O)C3CCCOC3)CCCc3cc(cc(Cl)c3O)C(=O)NC[C@@H](O)[C@H]2O)C[C@@H]1O (some centres unmarked) [A-352] | 94 | 0.7 |  |
| CC(=O)N[C@H]1[C@H]2O[C@](C(=O)O)(C/C=C/c3cccc(c3)[C@@H](NC(=O)C3CCCOC3)CCCCc3cc(cc(Cl)c3O)C(=O)NC[C@@H](O)[C@H]2O)C[C@@H]1O (some centres unmarked) [A-353] | 19 | 3.6 |  |

Further lines, with some results ahead:

| EC50 [2] [µM] | DSF (dTmD) [3] [°C] | SMILES | also measured |
| --- | --- | --- | --- |
| 27.5 | 1.5 | CC(=O)N[C@H]1[C@H]2O[C@](C(=O)O)(C/C=C/CCC[C@@H](NC(=O)[C@@H]3CCCOC3)c3cccc(c3)COc3c(C)cc(cc3C)C(=O)NC[C@@H](O)[C@H]2O)C[C@@H]1O [A-354] |  |
| 35.4 | 1.3 | CC(=O)N[C@H]1[C@H]2O[C@](C(=O)O)(C/C=C/CCC[C@@H](NC(=O)[C@H]3CCCOC3)c3cccc(c3)COc3c(C)cc(cc3C)C(=O)NC[C@@H](O)[C@H]2O)C[C@@H]1O [A-355] |  |
| 1.51 | 4.8 | Cc1cc2cc(C)c1OCc1cccc(c1)[C@H](NC(=O)C1CCCOC1)CCC/C=C/C[C@]1(C(=O)O)C[C@H](O)[C@@H](NC(=O)Cn3cc(C4CCCCC4)nn3)[C@@H](O1)[C@H](O)[C@H](O)CNC2=O (some centres unmarked) [A-356] |  |
| 66.1 | 1.1 | CC(=O)N[C@H]1[C@H]2O[C@](C(=O)O)(CC/C=C/CO[C@H]3C[C@H](CN3C(=O)C3CCCOC3)OCCOc3c(C)cc(cc3C)C(=O)NC[C@@H](O)[C@H]2O)C[C@@H]1O (some centres unmarked) [A-357] |  |
| 9.43 | 3.5 | Cc1cc2cc(C)c1OCCO[C@@H]1C[C@H](OC/C=C/CC[C@]3(C(=O)O)C[C@H](O)[C@@H](NC(=O)Cn4cc(C5CCCCC5)nn4)[C@@H](O3)[C@H](O)[C@H](O)CNC2=O)N(C(=O)C2CCCOC2)C1 (some centres unmarked) [A-358] |  |
| 59.8 | 1.1 | Cc1cc2cc(C)c1OCCCNC(=O)[C@H](C)COCCCC[C@]1(C(=O)O)C[C@H](O)[C@@H](NC(=O)Cn3cc(C4CCCCC4)nn3)[C@@H](O1)[C@H](O)[C@H](O)CNC2=O [A-359] |  |
| > 100 | −0.3 | CC(=O)N[C@H]1[C@H]([C@H](O)[C@H](O)CNC(=O)c2cc(C)c(O)c(C)c2)O[C@](CO)(CCN2CCOC[C@@]23CCN(C(=O)OC(C)(C)C)C3)C[C@@H]1O [A-360] |  |
| 49 | −0.3 | COC(=O)[C@@]1(CCN2CCOC[C@@]23CCN(C(=O)OC(C)(C)C)C3)C[C@H](O)[C@@H](NC(C)=O)[C@H]([C@H](O)[C@H](O)CNC(=O)c2cc(C)c(O)c(C)c2)O1 [A-361] |  |
| > 100 | −0.3 | CC(=O)N[C@H]1[C@H]([C@H](O)[C@H](O)CNC(=O)c2cc(C)c(O)c(C)c2)O[C@](C#N)(CCN2CCOC[C@@]23CCN(C(=O)OC(C)(C)C)C3)C[C@@H]1O [A-362] |  |
| 6.36 | 2.6 | CC(=O)N[C@H]1[C@H]([C@H](O)[C@H](O)CNC(=O)c2cc(C)c(O)c(C)c2)O[C@@](CCN2CCOC[C@@]23CCN(C(=O)OC(C)(C)C)C3)(c2nn[nH]n2)C[C@@H]1O [A-363] |  |
| > 100 | 0.1 | CC(=O)N[C@H]1[C@H]([C@H](O)[C@H](O)CNC(=O)c2cc(C)c(O)c(C)c2)O[C@@](CCN2CCOC[C@@]23CCN(C(=O)OC(C)(C)C)C3)(C(N)=O)C[C@@H]1O [A-364] |  |
| 37.5 | −0.3 | CC(=O)N[C@H]1[C@H]([C@H](O)[C@H](O)CNC(=O)c2cc(C)c(O)c(C)c2)O[C@@](CCN2CCOC[C@@]23CCN(C(=O)OC(C)(C)C)C3)(C(=O)NS(C)(=O)=O)C[C@@H]1O [A-365] |  |
| 2.83 | 2.9 | CC(=O)N[C@H]1[C@H]([C@H](O)[C@H](O)CNC(=O)c2cc(C)c(O)c(C)c2)O[C@@](CCN2CCOC[C@@]23CCN(C(=O)OC(C)(C)C)C3)(C(=O)NC#N)C[C@@H]1O [A-366] |  |
| > 100 | 0.1 | CC(=O)N[C@H]1[C@H]([C@H](O)[C@H](O)CNC(=O)c2cc(C)c(O)c(C)c2)O[C@@](CCN2CCOC[C@@]23CCN(C(=O)OC(C)(C)C)C3)(C(=O)NS(=O)(=O)C(F)(F)F)C[C@@H]1O [A-367] |  |
| 15 | −0.1 | CC(=O)N[C@H]1[C@H]([C@H](O)[C@H](O)CNC(=O)c2cc(C)c(O)c(C)c2)O[C@@](CCN2CCOC[C@@]23CCN(C(=O)OC(C)(C)C)C3)(C(=O)NS(=O)(=O)c2ccccc2)C[C@@H]1O [A-368] |  |
